Source: patent publication US20250195521A1 (Revolution Medicines, Inc., priority 2020, published 2025)
Values joined by “and” are separate entries in the source; they are usually repeats but may differ in a detail not shown here. Equal values may be shown once.

Columns and labels:
KRAS WT = KRAS WT (Homo sapiens (Human), UniProt P01116+P62937); assay: Ras-Raf disruption/FRET/MOA assay (BRAF RBD, Cyclophilin A); type: biochemical; conditions: read-out: KRAS WT FRET data IC50
Description: (§1) Compound is present in plate wells as a 10-point 3-fold dilution series starting at a final concentration of 30 μM. After incubation at 25° C. for 3 hours, a mixture of Anti-His Eu—W1024 and anti-GST allophycocyanin is then added to assay sample wells at final concentrations of 10 nM and 50 nM, respectively, and the reaction incubated for an additional 1.5 hours. […] Compounds that facilitate disruption of a Ras: RAF complex are identified as those eliciting a decrease in the TR-FRET ratio relative to DMSO control wells.
(§2) Disruption of B-Raf Ras-Binding Domain (BRAF^RBD) Interaction with K-Ras by Compounds of the Invention (Also Called a FRET Assay or an MOA Assay)
(§3) Note—The following protocol describes a procedure for monitoring disruption of K-Ras G12C (GMP-PNP) binding to BRAF^RBD by a compound of the invention. This protocol may also be executed substituting other Ras proteins or nucleotides.
(§4) The purpose of this biochemical assay was to measure the ability of test compounds to facilitate ternary complex formation between a nucleotide-loaded K-Ras isoform and Cyclophilin A; the resulting ternary complex disrupts binding to a BRAF^RBD construct, inhibiting K-Ras signaling through a RAF effector. Data is reported as IC50 values.
(§5) In assay buffer containing 25 mM HEPES pH 7.3, 0.002% Tween20, 0.1% BSA, 100 mM NaCl and 5 mM MgCl2, tagless Cyclophilin A, His6-K-Ras-GMPPNP, and GST-BRAF^RBD were combined in a 384-well assay plate at final concentrations of 25 μM, 12.5 nM and 50 nM, respectively. Compound was present in plate wells as a 10-point 3-fold dilution series starting at a final concentration of 30 μM. After incubation at 25° C. for 3 hours, a mixture of Anti-His Eu—W1024 and anti-GST allophycocyanin was then added to assay sample wells at final concentrations of 10 nM and 50 nM, respectively, and the reaction incubated for an additional 1.5 hours. […] Compounds that facilitate disruption of a K-Ras: RAF complex were identified as those eliciting a decrease in the TR-FRET ratio relative to DMSO control wells.

NRAS G12C = NRAS G12C (Homo sapiens (Human), UniProt P01111+P62937, G12C); assay: as above; type: biochemical; conditions: read-out: NRAS G12C FRET data IC50
NRAS G12C, sequence (P01111 whole entry G12C): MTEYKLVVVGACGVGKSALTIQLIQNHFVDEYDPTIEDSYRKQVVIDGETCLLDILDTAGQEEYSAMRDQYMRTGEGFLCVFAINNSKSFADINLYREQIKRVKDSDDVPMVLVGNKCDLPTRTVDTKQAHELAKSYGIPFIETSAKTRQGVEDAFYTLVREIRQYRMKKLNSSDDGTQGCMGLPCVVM
NRAS G12C, sequence (P62937 whole entry): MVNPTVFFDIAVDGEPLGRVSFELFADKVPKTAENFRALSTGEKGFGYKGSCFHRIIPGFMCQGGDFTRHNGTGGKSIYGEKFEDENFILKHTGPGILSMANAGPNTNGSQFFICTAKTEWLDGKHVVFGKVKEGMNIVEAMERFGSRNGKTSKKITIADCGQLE
Description: as §1, §2, §3, §4, §5

KRAS G12D = KRAS G12D (Homo sapiens (Human), UniProt P01116+P62937, G12D); assay: as above; type: biochemical; conditions: read-out: KRAS G12D FRET IC50
KRAS G12D, sequence (P01116 other isoform, or with tags, fused parts or gaps G12D): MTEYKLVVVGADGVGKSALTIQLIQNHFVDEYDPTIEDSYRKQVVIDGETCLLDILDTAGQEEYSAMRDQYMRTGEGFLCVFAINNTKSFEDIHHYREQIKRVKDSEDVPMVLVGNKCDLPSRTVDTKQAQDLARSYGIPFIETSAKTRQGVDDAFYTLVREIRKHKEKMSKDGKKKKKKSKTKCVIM
KRAS G12D, sequence (P62937 whole entry): as the sequence (P62937 whole entry) above
Description: as §1, §2, §3, §4, §5

KRAS G13C = KRAS G13C (Homo sapiens (Human), UniProt P01116+P62937, G13C); assay: as above; type: biochemical; conditions: read-out: KRAS G13C FRET IC50
KRAS G13C, sequence (P01116 other isoform, or with tags, fused parts or gaps G13C): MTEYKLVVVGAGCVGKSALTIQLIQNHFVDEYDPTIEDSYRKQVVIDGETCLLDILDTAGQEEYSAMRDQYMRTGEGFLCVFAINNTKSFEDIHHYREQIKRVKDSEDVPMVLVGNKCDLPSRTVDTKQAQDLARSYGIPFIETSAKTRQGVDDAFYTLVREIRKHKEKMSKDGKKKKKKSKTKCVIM
KRAS G13C, sequence (P62937 whole entry): as the sequence (P62937 whole entry) above
Description: as §1, §2, §3, §4, §5

KRAS G12S = KRAS G12S (Homo sapiens (Human), UniProt P01116+P62937, G12S); assay: as above; type: biochemical; conditions: read-out: KRAS G12S FRET IC50
KRAS G12S, sequence (P01116 other isoform, or with tags, fused parts or gaps G12S): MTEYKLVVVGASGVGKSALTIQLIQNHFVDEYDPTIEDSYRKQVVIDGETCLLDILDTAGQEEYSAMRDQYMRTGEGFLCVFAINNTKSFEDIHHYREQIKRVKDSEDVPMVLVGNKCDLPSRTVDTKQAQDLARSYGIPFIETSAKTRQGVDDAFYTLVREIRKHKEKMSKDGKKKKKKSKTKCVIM
KRAS G12S, sequence (P62937 whole entry): as the sequence (P62937 whole entry) above
Description: as §1, §2, §3, §4, §5

KRAS G12C = KRAS G12C (Homo sapiens (Human), UniProt P01116+P62937, G12C); assay: as above; type: biochemical; conditions: read-out: KRAS G12C FRET IC50
KRAS G12C, sequence (P01116-2 other isoform, or with tags, fused parts or gaps G12C): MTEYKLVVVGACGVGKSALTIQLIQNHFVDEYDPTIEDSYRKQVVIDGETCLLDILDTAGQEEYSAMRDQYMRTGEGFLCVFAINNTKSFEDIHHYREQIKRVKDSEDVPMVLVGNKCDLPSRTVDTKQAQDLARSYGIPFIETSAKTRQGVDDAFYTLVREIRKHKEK
KRAS G12C, sequence (P62937 whole entry): as the sequence (P62937 whole entry) above
Description: as §1, §2, §3, §4, §5

KRAS G12V = KRAS G12V (Homo sapiens (Human), UniProt P01116+P62937, G12V); assay: as above; type: biochemical; conditions: read-out: KRAS G12V FRET IC50
KRAS G12V, sequence (P01116 other isoform, or with tags, fused parts or gaps G12V): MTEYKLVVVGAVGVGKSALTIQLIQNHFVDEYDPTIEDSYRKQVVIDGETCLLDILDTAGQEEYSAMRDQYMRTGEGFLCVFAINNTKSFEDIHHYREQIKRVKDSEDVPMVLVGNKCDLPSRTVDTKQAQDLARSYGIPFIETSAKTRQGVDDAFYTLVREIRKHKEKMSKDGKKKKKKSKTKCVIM
KRAS G12V, sequence (P62937 whole entry): as the sequence (P62937 whole entry) above
Description: as §1, §2, §3, §4, §5

KRAS G13D = KRAS G13D (Homo sapiens (Human), UniProt P01116+P62937, G13D); assay: as above; type: biochemical; conditions: read-out: KRAS G13D FRET data IC50
KRAS G13D, sequence (P01116 other isoform, or with tags, fused parts or gaps G13D): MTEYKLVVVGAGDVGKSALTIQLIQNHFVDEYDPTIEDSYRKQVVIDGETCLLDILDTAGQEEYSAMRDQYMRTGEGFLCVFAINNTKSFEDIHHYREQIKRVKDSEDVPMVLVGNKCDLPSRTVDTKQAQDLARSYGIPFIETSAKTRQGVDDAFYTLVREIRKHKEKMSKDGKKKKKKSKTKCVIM
KRAS G13D, sequence (P62937 whole entry): as the sequence (P62937 whole entry) above
Description: as §1, §2, §3, §4, §5

[1] = tested on: Capan-1 cells (K-Ras G12V); assay: CellTiter-Glo cell viability, Capan-1; type: cell-based, human; conditions: Homo sapiens, CAPAN-1, 120 h, K-Ras G12V, 5-day treatment; read-out: Capan-1 Cell Viability IC50
Summary of the method: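 Compounds were dispensed directly onto seeded cells and incubated until day 5, then plates were equilibrated at room temperature for about 30 min before CellTiter-Glo luminescence readout. Signals were normalized as (sample/average DMSO)×100 and fitted with a four-parameter logistic model.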

[2] = tested on: K-Ras G12C (NCI-H358 cells); assay: Potency assay: pERK in NCI-H358 cells; type: cell-based, human; conditions: Homo sapiens; NCI-H358 cells, 4 hours; read-out: pERK EC50 (H358 KRAS G12C)
Summary of the method: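 Cells plated the day before were exposed for 4 h at 37° C, 5% CO2 to a 10-point, 3-fold DMSO dilution series (10 mM top stock), in duplicate. Phospho-ERK was read by AlphaLISA SureFire Ultra or by In-Cell Western with DRAQ5 DNA stain, and IC50 came from a 4-parameter sigmoidal fit.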

KRAS WT, sequence (P01116 other isoform, or with tags, fused parts or gaps): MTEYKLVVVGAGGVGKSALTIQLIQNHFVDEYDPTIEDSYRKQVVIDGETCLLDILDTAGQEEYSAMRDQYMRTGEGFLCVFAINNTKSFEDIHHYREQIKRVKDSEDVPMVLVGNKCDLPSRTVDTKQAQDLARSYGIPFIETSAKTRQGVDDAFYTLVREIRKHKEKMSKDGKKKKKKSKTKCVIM
KRAS WT, sequence (P62937 whole entry): as the sequence (P62937 whole entry) above

| Structure (SMILES) | IC50 (KRAS WT) | IC50 (NRAS G12C) | IC50 (KRAS G12D) | IC50 (KRAS G13C) | IC50 (KRAS G12S) | IC50 (KRAS G12C) | IC50 (KRAS G12V) | IC50 (KRAS G13D) | IC50 [1] | EC50 [2] |
| --- | --- | --- | --- | --- | --- | --- | --- | --- | --- | --- |
| CCn1c(-c2cnccc2COC)c2c3cc(ccc31)-c1cc(O)cc(c1)C[C@H](NC(=O)[C@H](C(C)C)N(C)C(=O)[C@@H]1CNC[C@@H]1C(F)(F)F)C(=O)N1CCC[C@H](N1)C(=O)OCC(C)(C)C2 [Compound A79] | 100 to 1000 nM | 100 to 1000 nM | 100 to 1000 nM | 100 to 1000 nM | 100 to 1000 nM | 100 to 1000 nM | 1000 to 10000 nM | 100 to 1000 nM | > 10000 nM |  |
| CCn1c(-c2cccnc2[C@H](C)OC)c2c3cc(ccc31)-c1csc(n1)C[C@H](NC(=O)[C@H](C(C)C)N(C)C(=O)[C@H]1CCN(CCO)C1)C(=O)N1CCC[C@H](N1)C(=O)OCC(C)(C)C2 [Compound A110] | 1000 to 10000 nM | 1000 to 10000 nM | 1000 to 10000 nM | 1000 to 10000 nM | 1000 to 10000 nM | 1000 to 10000 nM | > 10000 nM | 1000 to 10000 nM | > 10000 nM |  |
| CCn1c(-c2cccnc2[C@H](C)OC)c2c3cc(ccc31)-c1cc(O)cc(c1)C[C@H](NC(=O)[C@H](C(C)C)N(C)C(=O)C1CC13CNC3)C(=O)N1CCC[C@H](N1)C(=O)OCC(C)(C)C2 (stereo partly shown) [Compound A140] | 10 to 100 nM | 10 to 100 nM | 10 to 100 nM | 10 to 100 nM | 10 to 100 nM | 10 to 100 nM | 10 to 100 nM | 10 to 100 nM | > 10000 nM |  |
| CCn1c(-c2cccnc2[C@H](C)OC)c2c3cc(ccc31)-c1cc(O)cc(c1)C[C@H](NC(=O)[C@H](C(C)C)N(C)C(=O)[C@@H]1C[C@@H]1F)C(=O)N1CCC[C@H](N1)C(=O)OCC(C)(C)C2 [Compound A160] | 10 to 100 nM | 10 to 100 nM | 100 to 1000 nM | 10 to 100 nM | 100 to 1000 nM | 10 to 100 nM |  | 100 to 1000 nM | 100 to 1000 nM |  |
| CCn1c(-c2cccnc2[C@H](C)OC)c2c3cc(ccc31)-c1cc(O)cc(c1)C[C@H](NC(=O)[C@H](C(C)C)N(C)C(=O)[C@H]1C[C@H]1F)C(=O)N1CCC[C@H](N1)C(=O)OCC(C)(C)C2 [Compound A162] | 10 to 100 nM | 10 to 100 nM | 100 to 1000 nM | 10 to 100 nM | 10 to 100 nM | 10 to 100 nM |  | 10 to 100 nM |  | < 5000 nM |
| CCn1c(-c2cccnc2[C@H](C)OC)c2c3cc(ccc31)-c1cc(O)cc(c1)C[C@H](NC(=O)C(C)Cc1ccncc1)C(=O)N1CCC[C@H](N1)C(=O)OCC(C)(C)C2 (stereo partly shown) [Compound A179] | 100 to 1000 nM | 1000 to 10000 nM | 1000 to 10000 nM | 100 to 1000 nM | 1000 to 10000 nM | 100 to 1000 nM | 1000 to 10000 nM | 100 to 1000 nM and 1000 to 10000 nM |  | < 5000 nM |
| CCn1c(-c2cccnc2[C@H](C)OC)c2c3cc(ccc31)-c1cc(O)cc(c1)C[C@H](NC(=O)C13CCCC1C3(F)F)C(=O)N1CCC[C@H](N1)C(=O)OCC(C)(C)C2 (stereo partly shown) [Compound A180] | 1000 to 10000 nM | 1000 to 10000 nM | > 10000 nM | 100 to 1000 nM | 1000 to 10000 nM | 1000 to 10000 nM | 1000 to 10000 nM | 1000 to 10000 nM | 1000 to 10000 nM |  |
